Results as given in patent US5422359A, “α-aminoketone derivatives” (Mitsubishi Kasei Corporation, priority 1992, dated 1995).

Molecular target: T1, m-calpain (Rattus norvegicus, UniProt Q07009)
T1 construct: m-calpain was purified from a brain of rat; from tissue; host or cells: rat brain
T1 sequence (Q07009 20-700 limits assumed): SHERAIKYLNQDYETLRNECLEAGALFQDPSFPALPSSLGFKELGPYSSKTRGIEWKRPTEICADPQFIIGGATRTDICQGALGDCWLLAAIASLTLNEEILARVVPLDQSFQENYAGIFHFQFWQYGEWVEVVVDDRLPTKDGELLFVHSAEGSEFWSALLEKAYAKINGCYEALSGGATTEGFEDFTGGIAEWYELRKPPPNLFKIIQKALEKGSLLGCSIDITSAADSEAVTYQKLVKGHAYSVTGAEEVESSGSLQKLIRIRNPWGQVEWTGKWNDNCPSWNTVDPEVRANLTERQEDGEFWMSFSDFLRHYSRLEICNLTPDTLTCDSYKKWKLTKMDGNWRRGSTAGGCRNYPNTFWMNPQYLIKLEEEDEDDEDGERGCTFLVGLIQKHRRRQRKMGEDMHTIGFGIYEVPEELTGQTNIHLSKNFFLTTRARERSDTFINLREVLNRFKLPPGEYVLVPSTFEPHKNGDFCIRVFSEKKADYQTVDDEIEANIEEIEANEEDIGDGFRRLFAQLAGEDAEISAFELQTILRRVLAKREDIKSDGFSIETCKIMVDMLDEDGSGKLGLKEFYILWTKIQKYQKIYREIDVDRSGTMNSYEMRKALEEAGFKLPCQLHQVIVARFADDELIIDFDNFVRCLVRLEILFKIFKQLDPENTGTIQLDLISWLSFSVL
T1 sequence (Q64537 1-270 partner): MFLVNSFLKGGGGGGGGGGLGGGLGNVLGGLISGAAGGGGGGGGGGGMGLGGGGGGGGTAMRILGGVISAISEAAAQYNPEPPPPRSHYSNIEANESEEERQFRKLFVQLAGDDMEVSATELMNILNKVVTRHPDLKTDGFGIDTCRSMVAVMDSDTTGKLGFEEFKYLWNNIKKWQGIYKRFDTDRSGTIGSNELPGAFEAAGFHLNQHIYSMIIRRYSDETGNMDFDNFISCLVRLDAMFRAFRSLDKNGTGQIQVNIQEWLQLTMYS
Experiment: Measurement of inhibitory activity against calpain
Type: biochemical
Conditions: m-calpain purified from a brain of rat; read-out: 50% inhibitory concentration (IC50)
Method: Measurement of Inhibitory Activity against Calpain
Through the known method disclosed in Journal of Biological Chemistry, vol. 259, p.3210, (1984), m-calpain was purified from a brain of rat. The inhibitory activity against it was measured and determined according to the method disclosed in Journal of Biological Chemistry, vol. 259, p.12489 […].

IC50: 10.1 µM
SMILES: CCCC[C@H](NC(=O)[C@H](CC(C)C)NC(=O)OCc1ccccc1)C(=O)CCCc1ccco1 [Example 5]
